# Patent US8227423B2 (priority 2004, dated 2012)
# Ends that are not written are not given here.
# Columns and labels:
# Bacillus subtilis = type: cell-based
sequence,measurement,setting,value
"TRKKLFHIFHATIRSR [PAD-1.17, TRKKLFHIFHATIRSR]",detergent-like (lytic) action,sheep red blood cells,did not appear to act as a detergent
RFARKGALRQKNV [Protein kinase C],antibacterial effect in time kill assay (CFU),Bacillus subtilis,no effect
